Where a name gives a salt, the structure may show the parent alone.

One experiment is described as follows: MIC of test compounds against various organisms. The experiment is classed as cell-based.
Conditions: not given
The method, then:
The MIC (μg/ml) of test compounds against various organisms was determined including:
S. epidermidis CL7, S. aureus WCUH29, S. pneumoniae 1629, S. pyogenes CN10, H. influenzae ATCC 49247, E. faecalis 2, M. catarrhalis Ravasio, E. coli 7623.
Take `O=C1CSc2ccc(CN[C@H]3CC[C@H](C(=O)Nc4ccnc5ccccc45)CC3)nc2N1` [Example 3, trans-4-[(3-Oxo-3,4-dihydro-2H-pyrido[3,2-b][1,4]thiazin-6-ylmethyl)-amino]-cyclohexanecarboxylic acid quinolin-4-ylamide dihydrochloride]: the MIC is at most 8 µg/mL.

Still in this experiment, the particulars now being: versus all these organisms (panel of 8 strains); read-out: MIC.
Regarding `O=C1CSc2ccc(CN[C@H]3CC[C@](O)(C(=O)Nc4ccnc5ccsc45)CC3)nc2N1` [Example 1, 1 -Hydroxy-t-4-[(3-oxo-3,4-dihydro-2H-pyrido[3,2-b][1 ,4]thiazin-6-ylmethyl) -amino]-r-cyclohexanecarboxylic acid thieno[3,2-b]pyridin-7-ylamide dihydrochioride], the MIC is at most 8 µg/mL.

In the case of `COc1ccc2cccc(NC(=O)[C@]3(O)CC[C@@H](NCc4ccc5c(n4)NC(=O)CS5)CC3)c2n1` [Example 5, 1-Hydroxy-t-4-[(3-oxo-3,4-dihydro-2H-pyrido[3,2-b][1,4]thiazin-6-ylmethyl)-amino]-r-cyclohexanecarboxylic acid (2-methoxy-quinolin-8-yl)-amide], the MIC is at most 2 µg/mL.

As for `COc1ccc2cccc(NC(=O)[C@]3(O)CC[C@@H](NCc4ccc5c(n4)NCCS5)CC3)c2n1` [Example 6, 4-[(3,4-Dihydro-2H-pyrido[3,2-b][1,4]thiazin-6-ylmethyl)-amino]-1-hydroxy-cyclohexanecarboxylic acid (2-methoxy-quinolin-8-yl)-amide], the MIC is at most 8 µg/mL.

Turning to `COc1ccc2cccc(CC[C@]3(O)CC[C@@H](NCc4ccc5c(n4)NC(=O)CO5)CC3)c2n1` [Example 7, 6-({4-Hydroxy-4-[2-(2-methoxy-quinolin-8-yl)-ethyl]-cyclohexylamino}-methyl)-4H-pyrido[3,2-b][1,4]oxazin-3-one], the MIC is at most 2 µg/mL.

In the case of `COc1ccc2cccc(CCC3(O)CCC(NCc4ccc5c(n4)NC(=O)CS5)CC3)c2n1` (centres unmarked) [Example 8, 6-({4-Hydroxy-4-[2-(2-methoxy-quinolin-8-yl)-ethyl]-cyclohexylamino}-methyl)-4H-pyrido[3,2-b][1,4]thiazin-3-one], the MIC was at most 2 µg/mL.

For the compound `N#Cc1ccc2cccc(NC(=O)[C@@H]3CC[C@@H](NCc4ccc5c(n4)NC(=O)CO5)[C@@H](O)C3)c2n1` [Example 9, (1R,3S,4R)-3-Hydroxy-4-[(3-oxo-3,4-dihydro-2H-pyrido[3,2-b][1,4]oxazin-6-ylmethyl)-amino]-cyclohexanecarboxylic acid (2-cyano-quinolin-8-yl)-amide hydrochloride], the MIC is at most 2 µg/mL.

As for `N#Cc1ccc2cccc(NC(=O)[C@]3(O)CC[C@@H](NCc4ccc5c(n4)NC(=O)CS5)CC3)c2n1` [Example 10, 1-Hydroxy-t-4-[(3-oxo-3,4-dihydro-2H-pyrido[3,2-b][1,4]thiazin-6-ylmethyl)-amino]-r-cyclohexanecarboxylic acid (2-cyano-quinolin-8-yl)-amide dihydrochloride], the MIC was at most 2 µg/mL.

As for `N#Cc1ccc2cccc(NC(=O)[C@]3(O)CC[C@@H](NCc4ccc5c(n4)NC(=O)CO5)CC3)c2n1` [Example 11, 1-Hydroxy-t-4-[(3-oxo-3,4-dihydro-2H-pyrido[3,2-b][1,4]oxazin-6-ylmethyl)-amino]-r-cyclohexanecarboxylic acid (2-cyano-quinolin-8-yl)-amide hydrochloride], the MIC was at most 2 µg/mL.

The experiment is the same for the next values; noted with them: versus at least one of these organisms (panel of 8 strains); read-out: MIC.
`O=C1CSc2ccc(CN[C@H]3CC[C@](O)(C(=O)Nc4ccnc5c4OCCO5)CC3)nc2N1` [Example 2, 1-Hydroxy-t-4-[(3-oxo-3,4-dihydro-2H-pyrido[3,2-b][1,4]thiazin-6-ylmethyl)-amino]-r-cyclohexanecarboxylic acid (2,3-dibydro-[1,4]dioxino[2,3-b]pyridin-8-yl)-amide dihydrochloride]: the MIC is at most 16 µg/mL.

Regarding `O=C1CSc2ccc(CN[C@H]3CC[C@H](C(=O)Nc4cccc5cnccc45)CC3)cc2N1` [Example 4, trans-4-[(3-Oxo-3,4-dihydro-2H-benzo[1,4]thiazin-6-ylmethyl)-amino]-cyclohexanecarboxylic acid isoquinolin-5-ylamide], the MIC was at most 16 µg/mL.

What is called MIC is the least concentration at which growth counts as inhibited.

Source of the values: patent publication US7622481B2, “Antibacterial compounds” (priority 2003, dated 2009).
